# In patent USRE46907E1, “Suppression of cancer growth and metastasis using nordihydroguaiaretic acid derivatives with metabolic modulators” (THE JOHNS HOPKINS UNIVERSITY, priority 2008, dated 2018):
# Peptide text beside a SMILES is read from it. * marks the point of attachment. Cbz = O=C(OCc1ccccc1)*; CH2F = FC*
# Legend:
# [1] = tested on: 4T1 cells; test: TUNEL apoptosis assay in 4T1 cells; format: cell-based, mouse
# Experimental: (§1) Cell Culture Either cell line 4T1 or 67NR was a gift from Dr. Miller (20). The cells were cultured in RPMI1640 medium supplemented with glucose (14 mM), pyruvate (1 mM), penicillin (100 units/ml), streptomycin (100 μg/ml), and fetal bovine serum (10%), buffered with 25 mM HEPES (pH 7.4). LNCaP human prostate cancer cell line was purchased from American Type Culture Collection (Manassas, Va.). The cell line was cultured in RPMI1640 medium supplemented with glucose (14 mM), pyruvate (1 mM), penicillin (100 units/ml), streptomycin (100 μg/ml), and fetal bovine serum (10%). Drugs were dissolved in dimethyl sulfoxide (DMSO) at a suitable concentration so that the final concentration of DMSO in the medium was less than 0.1%.
# (§2) Apoptosis assay: Simple TLTNEL assay was conducted by using TUNEL apoptosis detection kit (Upstate, Temecula, Calif.) with some modification. For the evaluation of the effect of PKCδ wild type and dominant negative vectors on TUNEL-positive cell death, we first transfected 4T1 or 67NR cells with these vectors by effectene (Qiagen, Valencia, Calif.). Wild type PKCδ vector is constructed from wild type PKCδ gene and pEGFP (Promega, Madison, Wis.). Dominant negative PKCδ vector is constructed from PKCδ gene mutated at a 376th amino acid residue (threonine) and pEGFP (Promega, Madison, Wis.) This threonine residue is located in ATP-binding domain of protein kinase Cδ, and therefore essential for any kinase reaction of the protein so that this mutant protein supposedly function as dominant negative. As a control we used pEGFP-N3 vector was used. These vectors contain green fluorescent protein (GFP) gene to be used as a transfection marker. The vectors are kind gifts from Dr. Yuspa (National Institutes of Health, Bethesda, Md.) (88). Twenty four hours after transfection, the cells were treated with M4N, Rottlerin, or Ly294002. Then 24 hrs after this treatment with these reagents, the cells were fixed with 10% formaldehyde in phosphate buffered saline without calcium and magnesium (PBS (−)). The cells were then incubated with rabbit anti-GFP antibody (MBL International, Woburn, Mass.) followed by treatment with anti-rabbit IgG antibody conjugated with fluorescein (Promega, Madison, Wis.). TUNEL staining was conducted by using TUNEL apoptosis detection kit (Upstate, Temecula, Calif.) except for using Streptavidin-Alexa Fluor 568 (Molecular Probes, Eugene, Oreg.) instead of Avidine-Rhodamine contained in the kit. Cell death was evaluated by dividing the number of TUNEL-positive cells among the cells positive with anti-GFP staining by the number of these GFP-positive cells.
# [2] = tested on: 67NR cells; test: TUNEL apoptosis assay in 67NR cells; format: cell-based, mouse
# Experimental: as §1, §2
# [3] = tested on: PDK-1/Akt pathway-related proteins; test: Western blotting of PDK-1/Akt pathway-related proteins in 4T1 cells; format: cell-based, mouse; conditions: 4T1, 5 hrs after treatment, M4N 80 μM, Desferoxamine 75 or 150 μM
# Experimental: (§3) Western blotting: After cells had been grown in 25 mm^2 flasks and treated with reagents, the cells were washed with PBS (−) three times and suspended in RIP A buffer (150 mM NaCl, 50 mM Tris-HCl (pH 8,0), 0.1% SDS, 1% NP40, and 0.5% deoxycholate) supplemented with protease inhibitor cocktail (Calbiochem, San Diego, Calif.). The sample volumes were adjusted by the total protein amount. Protein assay was performed by Bio-Rad Protein Assay (Bio-Rad Laboratories, Inc. Hercules, Calif.). The samples were resolved by the standard SDS-polyacrylamide gel electrophoresis and transferred to nitrocellulose membrane (Amersham Biosciences, Bjorkgatan, Sweden). The membranes were blocked with skim milk, and incubated with primary antibodies at 4° C. overnight and then with secondary antibody conjugated with horse radish peroxidase at room temperature for 2 hrs. The signals were detected by western blot chemiluminescence reagent plus (New England Nuclear Life Science Products, Boston, Mass.).
# [4] = tested on: PKCδ; test: Western blotting of total PKCδ and phosphor-PKCδ (Thr505) in 4T1 cells; format: cell-based, mouse; conditions: 4T1, 5 hrs; M4N 80 μM, Ro 5 μM, Ly 20 μM, Des 150 μM
# Experimental: as §3, with “The” for “Western blotting: After cells had been grown in 25 mm^2 flasks and treated with reagents, the cells were washed with PBS (−) three times and suspended in RIP A buffer (150 mM NaCl, 50 mM Tris-HCl (pH 8,0), 0.1% SDS, 1% NP40, and 0.5% deoxycholate) supplemented with protease inhibitor cocktail (Calbiochem, San Diego, Calif.). The”
# [5] = tested on: PKCδ; test: Western blotting of total PKCδ and phosphor-PKCδ (Thr505) in 67NR cells; format: cell-based, mouse; conditions: 5 hrs, M4N 80 μM, Ro 5 μM, Ly 20 μM, Des 150 μM
# Experimental: as §3, with “The” for “Western blotting: After cells had been grown in 25 mm^2 flasks and treated with reagents, the cells were washed with PBS (−) three times and suspended in RIP A buffer (150 mM NaCl, 50 mM Tris-HCl (pH 8,0), 0.1% SDS, 1% NP40, and 0.5% deoxycholate) supplemented with protease inhibitor cocktail (Calbiochem, San Diego, Calif.). The”
# [6] = tested on: PKCδ; test: Immunocytochemistry of PKCδ cellular localization in 4T1 cells; format: cell-based, mouse; conditions: 4T1, 5 hrs; for nuclear staining for phosphor-PKCδ (Thr505): without Desferoxamine co-treatment
# Experimental: (§4) Immunocytocheimstry: Cells were cultured on glass cover slips coated with poly-L-ornithine (Sigma, Saint Louis, Mo.). At 5 hrs after treatment with drugs, the cells were fixed with 10% formaldehyde in diluted in PBS (−) and washed with PBS (−) three times. After permeabilized by 0.2% Tryton X-100 and 1% goat serum diluted in PBS (−), the cells were blocked by PBS (−) containing 5% goat serum. The cells were then incubated with primary antibodies diluted in PBS (−) containing 0.5% bovine serum albumin (BSA), and with secondary antibodies, which is either anti-IgG conjugated with fluorescein (Vector Laboratories. Burlingame, Calif.), diluted in PBS (−) containing 0.5% BSA. The cells were observed through Zeiss fluorescent microscope (Carl Zeiss, Thornwood, N.Y.).
# [7] = tested on: HIF; test: Western blotting of HIF in 4T1 cells; format: cell-based, mouse; conditions: 4T1, 5 hrs
# Experimental: as §3
# [8] = tested on: HIF; test: Western blotting of HIF in 67NR cells; format: cell-based, mouse; conditions: 5 hrs
# Experimental: as §3
# [9] = tested on: LNCaP human prostate cancer cells; format: cell-based; conditions: for effect on TUNEL-positive cell death induced by M4N: 24 hrs
# Experimental: as §1, §2
# [10] = tested on: LNCaP tumors; test: Nude mice orthotropically implanted with LNCaP tumors, about eight times tumor volume, treatment from day 3; format: in vivo, mouse
# Experimental: Surgical orthotropic implantation of LNCaP tumors: LNCaP cells were grown as described above. Cells growing subconfluently were collected and resuspended into the tissue culture medium without fetal bovine serum and antibiotics. After counting the number of the cells, the cell concentration was adjusted using the same medium. After 20 μl of the medium containing a selected number of cancer cells (about 5×10^7 cells) had been mixed together with the same volume of Matrigel (BD science, Bedford, Mass.), the combined solution was injected into the skin of nude mice. […] The tumor tissue extracted from the skin was excised into pieces of about 2 mm diameter. After nude mice were anesthetized by 2,2,2-Tribromoethanol (Aldrich Chemical Co. Inc., Milwaukee, Wis.), a small incision was made at the abdomen of each mouse and a tumor tissue piece was implanted in the neighbor of the prostate of each mouse. Eight days after the operation, the injection of drugs was initiated, and the drugs were injected intravenously every day for the indicated periods
# As in the previous experiment (FIGS. 9 to 13), in this study we administered M4N, Ly, Ro, Etoposide, or Rapamycin to mice intravenously using CPE (25/30) solvent system (87). […] However, in this experiment we implanted about eight times the volume of tumors as in the previous experiments to detect the difference of efficacy of various combination treatments much faster. We started to treat the mice with combination treatments three days after the implantation instead of eight days, considering that the tumor volume is already large at the time of implantation in this experiment. This allows less time for possible metastasis to the transplanted tumors in this experiment than in the previous one.
# [11] = tested on: caspase-9; test: Western blotting of caspase-9 cleavage in 67NR cells; format: cell-based, mouse; conditions: 5 hrs, Rottlerin 5 μM, M4N 80 μM
# Experimental: as §3
# [12] = tested on: 4T1 cells; test: 4T1 tumor-bearing Balb/c mice (life-span, tumor size); format: in vivo, mouse; conditions: 5×10^4 cells, M4N 1 mg/shot, Rottlerin 100 μg/shot, three days a week from day 7
# Experimental: (§5) Animals: Female Balb/e mice were obtained from Charles River Laboratories (Wilmington, Mass.). M4N and Rottlerin were dissolved into a solvent, CPE (25/30) solvent system supplied by Erimos Pharmaceutical, L.L.C. (Raleigh, N.C.) and injected into mice either intravenously or intraperitoneally, T-cell deficient male nude mice (nu/nu) were obtained from Charles River Laboratories (Wilmington, Mass.). M4N and Ly294002 were dissolved into a solvent, CPE (25/30) solvent system supplied by Erimos Pharmaceutical, L.L.C. (Raleigh, N.C.) and injected into mice intravenously.
# (§6) Tumor inoculation: Either 4T1 or 67NR cells were grown as described above. Cells growing subconfluently were collected and resuspended into the tissue culture medium minus fetal bovine serum and antibiotics, After counting the number of the cells, the cell concentration was adjusted. Twenty μl of the solution containing a selected number of cancer cells (either 5×10^3 or 5×10^4 cells) was injected into each fat pad of a pair of mammary glands located close to lower limbs. Tumor size was measured by weighing tumors extracted from mouse cadavers.
# [13] = tested on: 67NR cells; test: 67NR tumor-bearing Balb/c mice (life-span); format: in vivo, mouse; conditions: 5×10^4 cells, M4N 1 mg/shot, Rottlerin 100 μg/shot, three days a week from day 8
# Experimental: as §5, §6
# [14] = tested on: LNCaP human prostate cancer cells; test: MTT cell growth assay in LNCaP cells; format: cell-based; conditions: 24 hrs, M4N 80 μM, Ro 5 μM, Ly 20 μM
# Experimental: as §1
# MTT assay: Cells were incubated in PBS (−) supplemented with 5% fetal calf serum and 0.5 mg/ml MTT, 3-(4,5-Dimethylthiazol-2-yl)-2,5-diphenyltetrazolium bromide (Sigma, Saint Louis, Mo.) for 2 hrs. After the incubation, the cells were dissolved in dimethyl sulfoxide and the color of the solutions was measured by a spectrophotometer at wavelengths of 540 and 690 nm. The values correlated with viable cell numbers were obtained by subtracting the optical density at 690 nm from that, at 540 nm.
# [15] = tested on: PKCδ; test: Immunocytochemistry of PKCδ cellular localization in LNCaP cells; format: cell-based, human; conditions: 5 hrs
# Experimental: as §4
# [16] = tested on: mitochondrial membrane potential; test: Mitochondrial membrane potential; format: cell-based
# [17] = 4T1, 24 hrs, with M4N 80 μM, Rottlerin 5 μM, Desferoxamine 150 μM
# [18] = 26 hrs, with M4N 80 μM, Rottlerin 5 μM, Desferoxamine 150 μM
compound,measurement,setting,value
O=c1c(-c2ccc(O)cc2)coc2cc(O)cc(O)c12 [Genistein],effect on TUNEL-positive cell death induced by M4N with either Ro or Ly,"[1]; 4T1, Genistein 50 μM, 28 hrs",significantly suppressed the cell death
"CC(=O)N(O)CCCCCNC(=O)CCC(=O)N(O)CCCCCNC(=O)CCC(=O)N(O)CCCCCN.CS(=O)(=O)O [Desferoxamine, Desferoxamine mesylate]",effect on cell death induced by M4N,[1]; [17],generally augmented cell death even more
same,effect on cell death induced by M4N,"[1]; 4T1, 48 hr, Desferoxamine 300 μM with M4N 80 μM",enhanced cell death induced by M4N
same,effect on cell death induced by M4N,[2]; [18],generally augmented cell death even more
same,effect on cell death induced by M4N,"[2]; 48 hr, Desferoxamine 300 μM with M4N 80 μM",enhanced cell death induced by M4N
same,"expression of phosphorylated PDK (Ser241), Akt (Ser473), PRAS40 (Thr246), Raf (Ser259), MEK (Ser217/221)",[3],not much effect
same,amount of phosphorylated PKCδ at Thr505,[4],induced phosphorylation
same,amount of phosphorylated PKCδ at Thr505,[5],induced phosphorylation
same,cellular distribution / nuclear staining of total PKCδ,[6],did not modulate much nuclear staining
same,nuclear staining for phosphor-PKCδ (Thr505),[6],only moderately increased nuclear staining
same,HIF stabilization,[7],induced HIF stabilization
same,HIF stabilization,[8],induced HIF stabilization
COc1cc([C@@H]2c3cc4c(cc3[C@@H](O[C@@H]3O[C@@H]5CO[C@@H](C)O[C@H]5[C@H](O)[C@H]3O)[C@H]3COC(=O)[C@H]23)OCO4)cc(OC)c1O [Etoposide],effect on TUNEL-positive cell death induced by M4N,[9],synergistically augmented TUNEL-positive cell death induced by M4N
same,mice with lung metastasis lesions,[10]; combination groups at 80 days after tumor implantation,3 out of 5
same,time after implantation by which all mice died,"[10]; mouse, in vivo",≤ 24 days
CC(=O)c1c(O)c(C)c(O)c(Cc2c(O)c3c(c(C(=O)/C=C/c4ccccc4)c2O)OC(C)(C)C=C3)c1O [Rottlerin],TUNEL-positive cell death,"[1]; 4T1, 24 hrs, M4N 80 μM, Rottlerin 5 μM, Ly294002 20 μM",Neither Ro nor Ly alone induced TUNEL-positive cell death
same,TUNEL-positive cell death with M4N in cells transfected with control vectors,"[1]; 4T1, 24 hrs, control vector",induced cell death synergistically with M4N
same,effect on cell death induced by M4N,[1]; [17],greatly enhanced cell death induced by M4N
same,TUNEL-positive cell death with M4N in cells transfected with control vectors,"[2]; 24 hrs, control vector",induced cell death synergistically with M4N
same,TUNEL-positive cell death,"[2]; 26 hrs, M4N 80 μM, Rottlerin 5 μM, Ly294002 20 μM",Neither Ro nor Ly alone induced TUNEL-positive cell death
same,effect on cell death induced by M4N,[2]; [18],enhanced to some extent cell death induced by M4N
same,caspase-9 activation (cleavage),[11],a small amount of caspase-9 is activated
same,amount of phosphorylated PKCδ at Thr505,[4],induced phosphorylation
same,amount of phosphorylated PKCδ at Thr505,[5],induced phosphorylation
same,cellular distribution / nuclear staining of total PKCδ,[6],did not change much
same,nuclear staining for phosphor-PKCδ (Thr505),[6],augmented staining
same,life-span of 4T1-bearing mice,[12],didn't extend the life-span
same,life-span of 67NR-bearing mice,[13],didn't have much effect on the life-span
same,TUNEL-positive cell death,"[9]; 28 hrs, M4N 80 μM, Ro 5 μM, Ly 20 μM",has no effect
same,effect on cell death induced by M4N,"[9]; 28 hrs, with M4N 80 μM",synergistically augmented cell death induced by M4N
same,cell death with M4N over a broad range of concentrations,[9]; different concentrations of drugs,induced cell death synergistically
same,cytotoxicity alone,[9]; tissue culture,non-cytotoxic
same,cell growth (MTT),[14],suppressed cell growth to some extent
same,expression and nuclear level of total PKCδ,[15],"Neither M4N, Ro, nor Ly treatment caused any remarkable change"
same,nuclear expression of phosphor-PKCδ (Thr507),[15],augmented
same,depolarization of mitochondrial membrane potential,[16],depolarized mitochondrial membrane potential
"COC(=O)C[C@H](NC(=O)[C@H](C)NC(=O)[C@@H](NC(=O)OCc1ccccc1)C(C)C)C(=O)CF [zVAD, zVAD-fmk] (Cbz-Val-Ala-Asp(OMe)-CH2F)",effect of pan-caspase inhibitor on drug-induced TUNEL-positive cell death,"[1]; 4T1, zVAD 50 μM added 30 minutes before other drugs",didn't affect TUNEL-positive cell death
same,effect of pan-caspase inhibitor on drug-induced TUNEL-positive cell death,"[2]; zVAD 50 μM, 42 hrs",didn't affect TUNEL-positive cell death
"O=C([O-])C(Cl)Cl.[Na+] [Dichloroacetate, Sodium Dichloroacetate]",effect on TUNEL-positive cell death induced by M4N,[9],synergistically augmented TUNEL-positive cell death induced by M4N
